Our source for the inhibition and clearance values is ChEMBL document CHEMBL4387741, “Optimization of novel reversible Bruton's tyrosine kinase inhibitors identified using Tethering-fragment-based screens” (Bioorg Med Chem, 2019).

The target in data set [1] is Tyrosine-protein kinase FRK (Homo sapiens) (UniProt P42685). The data set is described as follows: Inhibition of wild-type human partial length FRK (A215 to F503 residues) expressed in bacterial expression system at 10 uM by Kinomescan method relative to control.
Sequence of Tyrosine-protein kinase FRK (Homo sapiens) (P42685 whole entry, the tested form may be a part): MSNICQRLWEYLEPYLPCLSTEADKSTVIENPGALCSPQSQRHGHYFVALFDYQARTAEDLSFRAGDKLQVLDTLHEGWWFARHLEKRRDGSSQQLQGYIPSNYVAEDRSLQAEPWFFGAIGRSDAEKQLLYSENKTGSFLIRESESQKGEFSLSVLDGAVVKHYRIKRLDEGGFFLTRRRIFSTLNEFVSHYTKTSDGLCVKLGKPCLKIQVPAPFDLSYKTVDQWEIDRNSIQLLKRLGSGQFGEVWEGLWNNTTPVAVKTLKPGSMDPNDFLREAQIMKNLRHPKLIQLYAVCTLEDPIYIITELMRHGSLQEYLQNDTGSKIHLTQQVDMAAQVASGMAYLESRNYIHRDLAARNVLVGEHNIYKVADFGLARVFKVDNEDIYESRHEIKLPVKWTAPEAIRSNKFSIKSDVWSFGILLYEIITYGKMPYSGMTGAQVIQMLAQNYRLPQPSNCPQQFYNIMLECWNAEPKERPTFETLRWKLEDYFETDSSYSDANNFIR
Data set [2] has as its target Vascular endothelial growth factor receptor 3 (Homo sapiens) (UniProt P35916). The experiment in a line: Inhibition of wild-type human partial length FLT4 (E821 to E1196 residues) expressed in bacterial expression system at 10 uM by Kinomescan method relative to control.
For data set [3], the target named is Mitogen-activated protein kinase kinase kinase 6 (Homo sapiens) (UniProt O95382). The data set is described as follows: Inhibition of wild-type human partial length ASK2 (M278 to R972 residues) expressed in mammalian expression system at 10 uM by Kinomescan method relative to control.
For data set [4], the target named is Serine/threonine-protein kinase MARK2 (Homo sapiens) (UniProt Q7KZI7). The data set is described as follows: Inhibition of wild-type human partial length MARK2 (M1 to R450 residues) expressed in bacterial expression system at 10 uM by Kinomescan method relative to control.
Data set [5] has as its target Ephrin type-B receptor 1 (Homo sapiens) (UniProt P54762). The data set is described as follows: Inhibition of wild-type human partial length EPHB1 (P589 to T911 residues) expressed in bacterial expression system at 10 uM by Kinomescan method relative to control.
Data set [6] has as its target Calcium/calmodulin-dependent protein kinase type II subunit gamma (Homo sapiens) (UniProt Q13555). The experiment in a line: Inhibition of wild-type human partial length CAMK2G (R9 to A303 residues) expressed in bacterial expression system at 10 uM by Kinomescan method relative to control.
In data set [7] the target is Tyrosine-protein kinase Yes (Homo sapiens) (UniProt P07947). The data set is described as follows: Inhibition of wild-type human partial length YES (T257 to L543 residues) expressed in bacterial expression system at 10 uM by Kinomescan method relative to control.
Data set [8] relates to Tyrosine-protein kinase ABL1 (Homo sapiens), P00519 [T315I]. The experiment in a line: Inhibition of human phosphorylated ABL1 T315I mutant (S229 to K512 residues) expressed in mammalian expression system at 10 uM by Kinomescan method relative to control.
Data set [9] concerns the target Dual specificity mitogen-activated protein kinase kinase 6 (Homo sapiens) (UniProt P52564). The experiment in a line: Inhibition of wild-type human partial length MEK6 (K36 to D334 residues) expressed in bacterial expression system at 10 uM by Kinomescan method relative to control.
Data set [10] addresses Serine/threonine-protein kinase 24 (Homo sapiens) (UniProt Q9Y6E0). The experiment in a line: Inhibition of wild-type human partial length MST3 (A30 to S311 residues) expressed in bacterial expression system at 10 uM by Kinomescan method relative to control.
Data set [11] deals with cGMP-dependent protein kinase 2 (Homo sapiens) (UniProt Q13237). The experiment in a line: Inhibition of wild-type human partial length PRKG2 (S422 to F762 residues) expressed in mammalian expression system at 10 uM by Kinomescan method relative to control.
The target of data set [12] is Serine/threonine-protein kinase SBK1 (Homo sapiens) (UniProt Q52WX2). The experiment in a line: Inhibition of wild-type human partial length SBK1 (P23 to P348 residues) expressed in mammalian expression system at 1 uM by Kinomescan method relative to control.
For data set [13], the target named is Tyrosine-protein kinase Tec (Homo sapiens) (UniProt P42680). The data set is described as follows: Inhibition of wild-type human partial length TEC (L341 to D620 residues) expressed in bacterial expression system at 1 uM by Kinomescan method relative to control.
Data set [14] deals with Myosin light chain kinase family member 4 (Homo sapiens) (UniProt Q86YV6). The experiment in a line: Inhibition of wild-type human partial length MYLK4 (V79 to S380 residues) expressed in bacterial expression system at 1 uM by Kinomescan method relative to control.
Sequence of Myosin light chain kinase family member 4 (Homo sapiens) (Q86YV6 whole entry, the tested form may be a part): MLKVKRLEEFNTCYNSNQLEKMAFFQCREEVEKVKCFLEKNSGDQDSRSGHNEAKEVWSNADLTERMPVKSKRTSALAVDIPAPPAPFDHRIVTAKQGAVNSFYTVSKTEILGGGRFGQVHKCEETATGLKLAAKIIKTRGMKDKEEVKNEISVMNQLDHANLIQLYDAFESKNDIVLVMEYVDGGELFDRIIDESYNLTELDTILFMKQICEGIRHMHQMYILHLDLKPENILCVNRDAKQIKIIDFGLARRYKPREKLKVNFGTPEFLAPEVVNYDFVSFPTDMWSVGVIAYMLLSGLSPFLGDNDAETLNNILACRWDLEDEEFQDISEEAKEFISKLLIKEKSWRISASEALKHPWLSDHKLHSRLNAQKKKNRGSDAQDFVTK
Data set [15] relates to ALK tyrosine kinase receptor (Homo sapiens), Q9UM73 [L1196M]. The data set is described as follows: Inhibition of wild-type human partial length ALK L1196M mutant (I1088 to E1409 residues) expressed in mammalian expression system at 1 uM by Kinomescan method relative to control.
Data set [16] concerns the target Cyclin-dependent kinase-like 2 (Homo sapiens) (UniProt Q92772). The experiment in a line: Inhibition of wild-type human partial length CDKL2 (M1 to D327 residues) expressed in bacterial expression system at 1 uM by Kinomescan method relative to control.
Data set [17] concerns the target Fibroblast growth factor receptor 4 (Homo sapiens) (UniProt P22455). The data set is described as follows: Inhibition of wild-type human partial length FGFR4 (G402 to E713 residues) expressed in bacterial expression system at 1 uM by Kinomescan method relative to control.
For data set [18], the target named is Serine/threonine-protein kinase pim-2 (Homo sapiens) (UniProt Q9P1W9). The experiment in a line: Inhibition of wild-type human partial length PIM2 (M1 to E291 residues) expressed in bacterial expression system at 1 uM by Kinomescan method relative to control.
The target of data set [19] is Cyclin-dependent kinase 5 (Homo sapiens) (UniProt Q00535). The experiment in a line: Inhibition of wild-type human full length CDK5 (M1 to P292 residues) expressed in bacterial expression system at 1 uM by Kinomescan method relative to control.
Sequence of Cyclin-dependent kinase 5 (Homo sapiens) (Q00535 whole entry, looked up, the tested form may be a part): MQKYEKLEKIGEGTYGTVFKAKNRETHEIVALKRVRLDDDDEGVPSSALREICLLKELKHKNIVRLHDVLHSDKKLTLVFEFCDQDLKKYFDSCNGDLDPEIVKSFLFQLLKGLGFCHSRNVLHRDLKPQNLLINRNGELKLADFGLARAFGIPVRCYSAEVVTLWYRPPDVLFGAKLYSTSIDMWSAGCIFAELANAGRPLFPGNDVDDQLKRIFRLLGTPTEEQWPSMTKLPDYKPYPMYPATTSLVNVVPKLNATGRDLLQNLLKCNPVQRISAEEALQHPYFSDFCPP
Data set [20] has as its target Serine/threonine-protein kinase Sgk3 (Homo sapiens) (UniProt Q96BR1). The experiment in a line: Inhibition of wild-type human partial length SGK3 (M119 to L496 residues) expressed in mammalian expression system at 1 uM by Kinomescan method relative to control.
The subject of data set [21] is Epidermal growth factor receptor (Homo sapiens), P00533 [UNDEFINED MUTATION]. The experiment in a line: Inhibition of human partial length EGFR L747-E749del/A750P mutant expressed in bacterial expression system at 1 uM by Kinomescan method relative to control.
The nature of data set [22]: Plasma clearance in Sprague-Dawley rat at 1 mg/kg, iv. In kind it is ADME, organism-based.
In data set [23] the target is 5'-AMP-activated protein kinase catalytic subunit alpha-2 (Homo sapiens) (UniProt P54646). The data set is described as follows: Inhibition of wild-type human partial length AMPK alpha2 (M1 to E306 residues) expressed in bacterial expression system at 1 uM by Kinomescan method relative to control.
The target of data set [24] is Ribosomal protein S6 kinase alpha-1 (Homo sapiens) (UniProt Q15418). The experiment in a line: Inhibition of wild-type human partial length N-terminal RSK1 Kinase domain 1 (M1 to E388 residues) expressed in bacterial expression system at 1 uM by Kinomescan method relative to control.
Data set [25] deals with Cyclin-dependent kinase 14 (Homo sapiens) (UniProt O94921). The experiment in a line: Inhibition of wild-type human full length PFTK1 (M1 to H451 residues) expressed in bacterial expression system at 1 uM by Kinomescan method relative to control.
Data set [26] addresses Ribosomal protein S6 kinase alpha-2 (Homo sapiens) (UniProt Q15349). The data set is described as follows: Inhibition of wild-type human partial length N-terminal RSK3 kinase domain 1 (M1 to Q385 residues) expressed in bacterial expression system at 1 uM by Kinomescan method relative to control.
Data set [27] concerns the target Mitogen-activated protein kinase kinase kinase 13 (Homo sapiens) (UniProt O43283). The data set is described as follows: Inhibition of wild-type human full length LZK (M1 to W966 residues) expressed in mammalian expression system at 1 uM by Kinomescan method relative to control.

Sequence of Epidermal growth factor receptor (Homo sapiens), P00533 [UNDEFINED MUTATION] (P00533 whole entry, looked up, stated change not applied): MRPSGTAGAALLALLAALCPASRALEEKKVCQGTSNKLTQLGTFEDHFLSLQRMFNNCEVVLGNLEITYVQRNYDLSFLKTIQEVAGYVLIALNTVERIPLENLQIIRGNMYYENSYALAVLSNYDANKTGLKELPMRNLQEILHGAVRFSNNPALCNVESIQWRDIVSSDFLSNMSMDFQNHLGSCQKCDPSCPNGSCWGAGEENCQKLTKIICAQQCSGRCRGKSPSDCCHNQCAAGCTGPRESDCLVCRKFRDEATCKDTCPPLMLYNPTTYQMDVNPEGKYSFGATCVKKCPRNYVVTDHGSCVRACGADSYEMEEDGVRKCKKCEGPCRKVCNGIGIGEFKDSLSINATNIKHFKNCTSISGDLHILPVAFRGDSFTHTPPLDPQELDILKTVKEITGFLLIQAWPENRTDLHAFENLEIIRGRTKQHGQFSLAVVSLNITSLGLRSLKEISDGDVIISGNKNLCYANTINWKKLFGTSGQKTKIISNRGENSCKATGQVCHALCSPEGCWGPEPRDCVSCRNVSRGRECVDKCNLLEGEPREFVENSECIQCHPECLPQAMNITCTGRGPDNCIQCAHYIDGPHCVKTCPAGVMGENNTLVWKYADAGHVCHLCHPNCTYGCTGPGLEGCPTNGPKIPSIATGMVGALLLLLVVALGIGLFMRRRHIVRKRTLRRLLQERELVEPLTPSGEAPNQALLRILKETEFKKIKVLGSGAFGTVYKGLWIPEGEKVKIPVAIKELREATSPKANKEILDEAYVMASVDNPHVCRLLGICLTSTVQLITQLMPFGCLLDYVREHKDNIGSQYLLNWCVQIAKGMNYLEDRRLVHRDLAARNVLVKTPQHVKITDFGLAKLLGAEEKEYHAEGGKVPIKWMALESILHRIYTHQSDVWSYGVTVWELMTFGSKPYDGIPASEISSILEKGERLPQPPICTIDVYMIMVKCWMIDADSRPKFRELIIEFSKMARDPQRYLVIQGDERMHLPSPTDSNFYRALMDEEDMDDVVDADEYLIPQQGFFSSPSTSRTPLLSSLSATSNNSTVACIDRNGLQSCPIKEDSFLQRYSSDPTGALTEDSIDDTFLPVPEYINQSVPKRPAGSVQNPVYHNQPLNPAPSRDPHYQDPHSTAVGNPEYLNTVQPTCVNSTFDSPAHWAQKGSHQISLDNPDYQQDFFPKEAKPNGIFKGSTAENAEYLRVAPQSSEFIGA
Sequence of Cyclin-dependent kinase-like 2 (Homo sapiens) (Q92772 whole entry, the tested form may be a part): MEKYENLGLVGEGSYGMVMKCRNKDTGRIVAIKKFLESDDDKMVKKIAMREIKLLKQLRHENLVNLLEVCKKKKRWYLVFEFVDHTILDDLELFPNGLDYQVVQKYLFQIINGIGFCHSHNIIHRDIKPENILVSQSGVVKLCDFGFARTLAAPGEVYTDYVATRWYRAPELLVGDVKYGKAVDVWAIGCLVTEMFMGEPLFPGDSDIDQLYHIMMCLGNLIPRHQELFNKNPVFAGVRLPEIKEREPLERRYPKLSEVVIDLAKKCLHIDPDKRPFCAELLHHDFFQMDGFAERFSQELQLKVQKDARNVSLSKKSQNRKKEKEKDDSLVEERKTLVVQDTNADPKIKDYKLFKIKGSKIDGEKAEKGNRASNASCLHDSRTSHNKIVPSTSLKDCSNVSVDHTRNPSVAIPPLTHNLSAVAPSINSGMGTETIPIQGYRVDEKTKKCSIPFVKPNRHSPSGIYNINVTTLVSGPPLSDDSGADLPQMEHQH
Sequence of Fibroblast growth factor receptor 4 (Homo sapiens) (P22455 22-802 limits assumed): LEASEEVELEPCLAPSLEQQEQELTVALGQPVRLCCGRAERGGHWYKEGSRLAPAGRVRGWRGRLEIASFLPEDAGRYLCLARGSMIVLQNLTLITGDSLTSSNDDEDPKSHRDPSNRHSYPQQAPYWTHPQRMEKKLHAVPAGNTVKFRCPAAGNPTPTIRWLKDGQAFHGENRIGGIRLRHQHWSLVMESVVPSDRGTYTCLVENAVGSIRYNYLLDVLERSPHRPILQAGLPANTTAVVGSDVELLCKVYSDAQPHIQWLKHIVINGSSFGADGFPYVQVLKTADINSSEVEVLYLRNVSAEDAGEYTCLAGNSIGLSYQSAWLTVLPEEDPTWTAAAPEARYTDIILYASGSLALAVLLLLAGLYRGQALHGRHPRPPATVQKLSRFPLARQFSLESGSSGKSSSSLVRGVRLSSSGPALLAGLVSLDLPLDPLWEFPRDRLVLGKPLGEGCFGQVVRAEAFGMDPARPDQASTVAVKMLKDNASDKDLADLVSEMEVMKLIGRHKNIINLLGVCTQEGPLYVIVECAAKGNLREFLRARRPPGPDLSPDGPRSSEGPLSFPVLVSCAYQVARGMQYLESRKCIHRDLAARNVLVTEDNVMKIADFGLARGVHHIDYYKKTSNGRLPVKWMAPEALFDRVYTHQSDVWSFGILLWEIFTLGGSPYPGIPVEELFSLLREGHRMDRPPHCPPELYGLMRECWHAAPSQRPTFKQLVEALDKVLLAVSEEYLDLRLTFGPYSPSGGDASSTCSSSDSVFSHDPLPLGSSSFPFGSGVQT
Sequence of Dual specificity mitogen-activated protein kinase kinase 6 (Homo sapiens) (P52564 whole entry, the tested form may be a part): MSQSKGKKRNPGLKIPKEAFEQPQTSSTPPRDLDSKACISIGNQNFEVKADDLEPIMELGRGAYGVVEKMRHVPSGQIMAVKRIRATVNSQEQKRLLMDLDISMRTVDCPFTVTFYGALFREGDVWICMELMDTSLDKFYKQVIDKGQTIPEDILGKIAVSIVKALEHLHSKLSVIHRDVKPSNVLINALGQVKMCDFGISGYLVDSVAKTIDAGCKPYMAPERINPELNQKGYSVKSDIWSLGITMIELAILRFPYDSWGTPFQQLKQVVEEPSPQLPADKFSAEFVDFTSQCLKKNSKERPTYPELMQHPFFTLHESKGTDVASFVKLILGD
Sequence of Ephrin type-B receptor 1 (Homo sapiens) (P54762 whole entry, the tested form may be a part): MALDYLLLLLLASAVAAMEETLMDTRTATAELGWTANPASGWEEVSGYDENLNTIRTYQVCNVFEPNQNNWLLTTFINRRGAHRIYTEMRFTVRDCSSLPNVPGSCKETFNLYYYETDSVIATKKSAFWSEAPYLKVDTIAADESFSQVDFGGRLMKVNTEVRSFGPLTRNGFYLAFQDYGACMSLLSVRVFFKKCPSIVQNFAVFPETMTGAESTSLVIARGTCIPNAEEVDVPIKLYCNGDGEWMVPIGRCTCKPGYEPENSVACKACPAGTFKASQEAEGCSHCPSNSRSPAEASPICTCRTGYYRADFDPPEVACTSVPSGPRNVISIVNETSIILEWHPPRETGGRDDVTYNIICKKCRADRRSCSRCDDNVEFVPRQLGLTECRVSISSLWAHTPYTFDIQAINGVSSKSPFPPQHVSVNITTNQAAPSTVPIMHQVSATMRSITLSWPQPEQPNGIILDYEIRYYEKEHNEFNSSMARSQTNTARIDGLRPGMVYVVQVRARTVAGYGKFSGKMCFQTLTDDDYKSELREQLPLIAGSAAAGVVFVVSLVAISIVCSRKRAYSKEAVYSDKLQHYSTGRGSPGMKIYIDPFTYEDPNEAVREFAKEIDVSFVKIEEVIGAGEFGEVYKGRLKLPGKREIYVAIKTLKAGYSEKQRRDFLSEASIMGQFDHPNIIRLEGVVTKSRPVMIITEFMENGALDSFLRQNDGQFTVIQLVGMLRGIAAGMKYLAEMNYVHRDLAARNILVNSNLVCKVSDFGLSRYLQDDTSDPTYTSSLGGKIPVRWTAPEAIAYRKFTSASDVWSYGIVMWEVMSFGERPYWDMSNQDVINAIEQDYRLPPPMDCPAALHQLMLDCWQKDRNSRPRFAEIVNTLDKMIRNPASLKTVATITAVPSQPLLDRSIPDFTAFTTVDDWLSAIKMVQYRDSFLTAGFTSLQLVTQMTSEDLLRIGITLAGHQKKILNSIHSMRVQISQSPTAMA

As to `O=C(Nc1cccc([C@H]2CCCN(c3ncnc4[nH]ccc34)C2)c1)Nc1ccccc1N1CCCC1`, the inhibition (as a rule, how much of the control response was suppressed) worked out at 96% in data set [1]; 0.55% in data set [2]; 73% in data set [3]; 41% in data set [4]; 100% in data set [5]; 94% in data set [6]. The inhibition in data set [7] turned out to be 62%; in data set [8], 56%; in [9], 86%; in data set [10], 56%; in [11] it was 54%.

Consider `O=C(Nc1cccc([C@@H]2CN(c3ncnc4[nH]ccc34)CCN2CCO)c1)Nc1c(F)cccc1N1CCCC1`, for which the inhibition in data set [12] was determined as 69%; in data set [13], 45%; in [14], 100%; in [15], 74%; in data set [16], 100%; in [17], 100%. The inhibition in [18] was determined as 100%; in [19], 68%; in [20], 84%; in data set [21] it was 87%; in data set [23], 56%; in data set [24] it was 90%. In addition, the inhibition in data set [25] is 89%; in data set [26], 88%; in [27], 100%. The clearance (as a rule, a measure of how efficiently the substance is removed, as volume per time) in data set [22] was found to be 6.2 mL/min/kg.
